Assay results: US6573059B1, “Use of the regulatory subunit of the camp dependent protein kinase (PKA) from dictyostelium for camp measurements” (RMF Dictagene S.A., priority 2000, dated 2003)
Several values for one entry are separate records, joined by “and”; a condition that tells them apart may be missing. Equal values may be shown once. Read-outs that look alike come from different tables or passages of the source.

Experiments:
[1] = biological target: T1, R26-GFP (truncated R subunit of cAMP dependent protein kinase (PKA), cAMP binding site A, fused to w7 GFP) (Dictyostelium discoideum, UniProt P05987); assay: FRET titration and competition for cyclic nucleotide binding to purified R26-GFP
T1 sequence (P05987 1-170): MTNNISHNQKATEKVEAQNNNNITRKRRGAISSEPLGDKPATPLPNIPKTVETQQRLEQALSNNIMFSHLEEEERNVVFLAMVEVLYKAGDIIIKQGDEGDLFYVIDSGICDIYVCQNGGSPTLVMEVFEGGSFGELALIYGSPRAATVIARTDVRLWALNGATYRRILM
Description: Fluorescently labelled cGMP (8-{{2-{(Fluoresceinylthioureido)amino}ethyl}thio} guanosine-3′, 5′-cyclic, Biolog) was added to purified R26-GFP and fluorescence emission recorded while exciting at 433 nm.
In a further experiment, unlabelled cAMP was added in a 5 fold excess over 8-fluo-cGMP.
The concentration of labelled 8-fluo-cGMP was varied while recording fluorescence changes (FIG. 3, inset).
In order to measure the real KD for cAMP, a competition experiment was performed by varying stepwise 8-fluo-cGMP concentration For each 8-fluo-cGMP concentration, increasing concentrations of unlabelled cAMP was added, allowing to calculate the apparent KD for cAMP in each Case (FIG. 4).
For FRET measurements, R-26-GFP was diluted to about 0.1 μM. Excitation was performed at 433 nm, while emission was recorded over a range from 450 to 550 nm in a PTI C60 spectrofluorimeter (Photon Technology International).
Different concentrations of 8-Fluo-cGMP (8-{{2-{(Fluoresecinylthioureido)amino}ethyl}thio} guanosine 3′, 5′-cyclic monophosphate, Biolog) were added as indicated (5 fold excess in FIG. 2, open squares) and emission spectra were recorded again. […] In competition experiments, unlabelled cAMP was added at the indicated concentrations (FIG. 3, 100 μM).

[2] = biological target: mammalian enzymes (PKA regulatory subunit); details: read-out: KD for cAMP, background section; cited from earlier work
[3] = biological target: regulatory subunit of the cAMP dependent protein kinase (PKA) from Dictyostelium (Dictyostelium discoideum, UniProt P05987); details: read-out: KD for cAMP; Dictyostelium R subunit, background section; cited from earlier work
Sequence of regulatory subunit of the cAMP dependent protein kinase (PKA) from Dictyostelium (P05987 whole entry): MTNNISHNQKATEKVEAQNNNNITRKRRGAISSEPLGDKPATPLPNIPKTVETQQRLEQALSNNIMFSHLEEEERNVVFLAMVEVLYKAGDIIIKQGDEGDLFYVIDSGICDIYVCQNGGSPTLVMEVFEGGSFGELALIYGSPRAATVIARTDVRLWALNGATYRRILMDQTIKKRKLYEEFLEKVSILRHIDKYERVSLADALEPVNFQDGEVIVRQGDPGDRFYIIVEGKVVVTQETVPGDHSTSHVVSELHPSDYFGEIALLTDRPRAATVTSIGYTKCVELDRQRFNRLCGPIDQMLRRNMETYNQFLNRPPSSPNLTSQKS

[4] = test system: double GFP-R (R subunit with w7 and S65T GFPs flanking cAMP binding site A); details: 500 μM cAMP, emission spectrum, excitation 434 nm
Description: The spectral properties of the double GFP-R were determined using a spectrofluorimeter PTI C60 with photomultiplicator. […] The shoulder corresponds to the emission of the w7, whereas the major peak represents S65T emission.
A conformational change could also result simply from the binding of cAMP. The double GFP-R was incubated with increasing concentrations of cAMP.
Emission spectra from 450 to 550 nm were recorded using a fixed excitation at 434 nm with a bandwidth of 8 nm and an integration time between 0.2 and 1 sec (FIG. 6).
In a second experiment, partially purified double GFP-R was incubated in the presence of increasing concentration of cAMP (FIG. 6B).

Nc1ncnc2c1nc(SCCNC(=S)Nc1ccc3c(c1)C(=O)OC31c3ccc(O)cc3Oc3cc(O)ccc31)n2[C@@H]1O[C@@H]2COP(=O)(O)O[C@H]2[C@H]1O [8-fluo-cAMP, 8-{{2-{(Fluoresceinylthioureido)amino}ethyl}thio}adenosine-3′,5′-cyclic monophosphate]
Kd [1]: ~0.0045 µM

Nc1nc2c(nc(SCCNC(=S)Nc3ccc4c(c3)C(=O)OC43c4ccc(O)cc4Oc4cc(O)ccc43)n2[C@@H]2O[C@@H]3COP(=O)(O)O[C@H]3[C@H]2O)c(=O)[nH]1 [8-fluo-cGMP, 8-{{2-{(Fluoresecinylthioureido)amino}ethyl}thio} guanosine 3′, 5′-cyclic monophosphate]
Kd [1]: ~0.08 µM

Nc1ncnc2c1ncn2[C@@H]1O[C@@H]2COP(=O)(O)O[C@H]2[C@H]1O [cAMP]
Kd ([1]; true KD for cAMP, competition of unlabelled cAMP with 8-fluo-cGMP, apparent KDs extrapolated to 0): 0.02 µM and ~0.02 µM
Kd [2]: 0.01 to 0.03 µM
Kd [3]: ~0.02 µM
amplitude change compared to double GFP/R alone [4]: about 10%

Nc1nc2c(ncn2[C@@H]2O[C@@H]3COP(=O)(O)O[C@H]3[C@H]2O)c(=O)[nH]1 [cGMP]
Kd ([1]; reverse competition experiment, read-out: KD for cGMP): ~1.85 µM
